The results in this text go back to patent publication US7951815B2, “Substituted 1,4,8-triazaspiro [4,5]decan-2-one compounds” (Gruenenthal GmbH, priority 2004, dated 2011).

Counter-ions that a name gives are not always drawn.

T1 sequence (P31652 whole entry): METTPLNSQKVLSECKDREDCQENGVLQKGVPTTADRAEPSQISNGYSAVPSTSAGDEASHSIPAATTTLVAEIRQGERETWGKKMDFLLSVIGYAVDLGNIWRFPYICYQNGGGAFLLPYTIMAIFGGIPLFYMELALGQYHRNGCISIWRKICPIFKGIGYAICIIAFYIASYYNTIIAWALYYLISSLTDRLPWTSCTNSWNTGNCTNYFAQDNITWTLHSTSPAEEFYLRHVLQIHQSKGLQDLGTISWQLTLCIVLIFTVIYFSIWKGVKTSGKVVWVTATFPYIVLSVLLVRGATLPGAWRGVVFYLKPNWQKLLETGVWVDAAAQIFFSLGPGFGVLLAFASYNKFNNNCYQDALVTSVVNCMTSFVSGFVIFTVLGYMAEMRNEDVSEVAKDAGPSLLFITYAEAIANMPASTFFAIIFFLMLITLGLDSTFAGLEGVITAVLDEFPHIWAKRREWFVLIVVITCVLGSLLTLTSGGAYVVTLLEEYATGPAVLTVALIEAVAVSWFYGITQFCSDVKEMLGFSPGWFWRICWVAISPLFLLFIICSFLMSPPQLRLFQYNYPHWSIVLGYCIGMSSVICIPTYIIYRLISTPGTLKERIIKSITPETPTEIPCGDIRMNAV

The first assay has as its target T1, 5-HT transporter (Rattus norvegicus, UniProt P31652).
T1 construct: synaptosomes of rat brain areas are freshly isolated; from tissue; host or cells: rat brain synaptosomes (P2 fraction) from marrow and pons
Put plainly: Inhibition of 5-HT uptake in rat brain synaptosomes. It counts as biochemical. As to conditions: characteristic data of the 5-HT transporter, rat synaptosomes.
Usually Km stands for the concentration of substrate that gives half-maximal velocity. On to `NCCc1c[nH]c2ccc(O)cc12` [Example 5-HT, reference compound], for which the Km amounted to 0.084 ± 0.011 µM.

The assay is the same for the next values; noted with them: read-out: Uptake 5-HT, % inhibition; Table II; rat, 1 μM.
The term inhibition denotes the percentage by which the read-out fell short of the control. Consider `CCC(CC)C(=O)N1CCC2(CC1)NC(CCSC)C(=O)N2Cc1ccccc1` (stereo not shown) [Example 33, 1-benzyl-8-(2-ethylbutyryl)-3-(2-methylsulfanylethyl)-1,4,8-triazaspiro[4,5]decan-2-one hydrochloride], for which the inhibition at 1 µM stood at 49%.

Still in this assay, the particulars now being: read-out: Uptake 5-HT, % inhibition; Table III; rat, 1 μM.
Turning to `COc1ccc(C(=O)N2CCC3(CC2)NC(CCSC)C(=O)N3C)c(OC)c1` (stereo not shown) [Example 67, 8-(2,4-Dimethoxybenzoyl)-1-methyl-3-(2-methylsulfanylethyl)-1,4,8-triazaspiro[4,5]decan-2-one], the inhibition at 1 µM amounted to 46%.
Consider `CCC(CC)C(=O)N1CCC2(CC1)NCC(=O)N2Cc1ccccc1C#N` [Example 68, 2-[8-(2-Ethylbutyryl)-2-oxo-1,4,8-triazaspiro[4,5]dec-1-ylmethyl]benzonitrile], for which the inhibition at 1 µM worked out at 75%.
On the same count and under the same terms, the same measure for `CCOC(=O)CC(=O)N1CCC2(CC1)NCC(=O)N2CCOc1ccccc1` [Example 74, Ethyl 3-oxo-3-[2-oxo-1-(2-phenoxyethyl)-1,4,8-triazaspiro[4,5]dec-8-yl]propionate]: 47%; for `C#CCN1C(=O)C(Cc2ccccc2)NC12CCN(C(=O)COC)CC2` (stereo not shown) [Example 81, 3-Benzyl-8-(2-methoxyacetyl)-1-prop-2-ynyl-1,4,8-triazaspiro[4,5]decan-2-one]: 43%.
Same read-out and setting: the same measure for `O=C1NC2(CCN(C(=O)c3ccccc3Cl)CC2)NC1Cc1ccccc1` (stereo not shown) [Example 84, 3-Benzyl-8-(2-chlorobenzoyl)-1,4,8-triazaspiro[4,5]decan-2-one]: 64%.
Regarding `CC(C)=CCN1C(=O)C(C(C)C)NC12CCN(C(=O)c1ccncc1)CC2` (stereo not shown) [Example 87, 3-Isopropyl-1-(3-methylbut-2-enyl)-8-(pyridin-4-carbonyl)-1,4,8-triazaspiro[4,5]decan-2-one], the inhibition at 1 µM turned out to be 56%.
On the same count and under the same terms, under `CC(C)(C)CC(=O)N1CCC2(CC1)NC(=O)C(Cc1ccccc1)N2` (stereo not shown) [Example 110, 3-Benzyl-8-(3,3-dimethylbutyryl)-1,4,8-triazaspiro[4,5]decan-2-one] stands 33%; under `COCCOCC(=O)N1CCC2(CC1)NC(CCSC)C(=O)N2Cc1ccccc1C#N` (stereo not shown) [Example 114, 2-[8-[2-(2-Methoxyethoxy)acetyl]-3-(2-methylsulfanylethyl)-2-oxo-1,4,8-triazaspiro[4,5]dec-1-ylmethyl]benzonitrile], 53%; under `Cc1cc(C(=O)N2CCC3(CC2)NC(=O)C(C(C)C)N3)ccc1Br` (stereo not shown) [Example 130, 8-(4-Bromo-3-methylbenzoyl)-3-isopropyl-1,4,8-triazaspiro[4,5]decan-2-one], 32%.
Still for that read-out and setting: under `CSc1ncccc1C(=O)N1CCC2(CC1)NC(Cc1ccccc1)C(=O)N2C` (stereo not shown) [Example 143, 3-Benzyl-1-methyl-8-(2-methylsulfanylpyridin-3-carbonyl)-1,4,8-triazaspiro[4,5]decan-2-one] stands 42%; under `CCCCN1C(=O)C(CCSC)NC12CCN(C(=O)c1ccc(OC)cc1)CC2` (stereo not shown) [Example 144, 1-Butyl-8-(4-methoxybenzoyl)-3-(2-methylsulfanylethyl)-1,4,8-triazaspiro[4,5]decan-2-one], 51%; under `CSCCC1NC2(CCN(C(=O)c3ccco3)CC2)N(Cc2ccc(F)cc2)C1=O` (stereo not shown) [Example 147, 1-(4-Fluorobenzyl)-8-(furan-2-carbonyl)-3-(2-methylsulfanylethyl)-1,4,8-triazaspiro[4,5]decan-2-one], 45%.
For the compound `C#CCN1C(=O)C(CCSC)NC12CCN(C(=O)C1CCC1)CC2` (stereo not shown) [Example 152, 8-Cyclobutanecarbonyl-3-(2-methylsulfanylethyl)-1-prop-2-ynyl-1,4,8-triazaspiro[4,5]decan-2-one], the inhibition at 1 µM worked out at 56%.
Turning to `CCCCN1C(=O)C(Cc2ccccc2)NC12CCN(C(=O)c1ccco1)CC2` (stereo not shown) [Example 153, 3-Benzyl-1-butyl-8-(furan-2-carbonyl)-1,4,8-triazaspiro[4,5]decan-2-one], the inhibition at 1 µM came out at 63%.
With `CCCCN1C(=O)C(Cc2ccccc2)NC12CCN(C(=O)c1cc(C(F)(F)F)ccc1C(F)(F)F)CC2` (stereo not shown) [Example 155, 3-Benzyl-8-(2,5-bis-trifluoromethylbenzoyl)-1-butyl-1,4,8-triazaspiro[4,5]decan-2-one], the inhibition at 1 µM is 74%.
Consider `CC(C)C1NC2(CCN(C(=O)c3cccnc3Cl)CC2)N(Cc2ccccc2)C1=O` (stereo not shown) [Example 157, 1-Benzyl-8-(2-chloropyridin-3-carbonyl)-3-isopropyl-1,4,8-triazaspiro[4,5]decan-2-one], for which the inhibition at 1 µM was found to be 64%.
Still for that read-out and setting: the same measure for `CCCCN1C(=O)C(CCSC)NC12CCN(C(=O)COCc1ccccc1)CC2` (stereo not shown) [Example 159, 8-(2-Benzyloxyacetyl)-1-butyl-3-(2-methylsulfanylethyl)-1,4,8-triazaspiro[4,5]decan-2-one]: 40%; for `CCCCN1C(=O)C(CCSC)NC12CCN(C(=O)CCCOc1ccccc1)CC2` (stereo not shown) [Example 161, 1-Butyl-3-(2-methylsulfanylethyl)-8-(4-phenoxybutyryl)-1,4,8-triazaspiro[4,5]decan-2-one]: 39%.
Same read-out and setting: the same measure for `CSCCC1NC2(CCN(C(=O)c3cccnc3Oc3ccccc3)CC2)N(Cc2ccccc2F)C1=O` (stereo not shown) [Example 163, 1-(2-Fluorobenzyl)-3-(2-methylsulfanylethyl)-8-(2-phenoxypyridin-3-carbonyl)-1,4,8-triazaspiro[4,5]decan-2-one]: 71%.
On the same count and under the same terms, under `CSCCC1NC2(CCN(C(=O)c3ccccn3)CC2)N(Cc2ccccc2F)C1=O` (stereo not shown) [Example 170, 1-(2-Fluorobenzyl)-3-(2-methylsulfanylethyl)-8-(pyridin-2-carbonyl)-1,4,8-triazaspiro[4,5]decan-2-one] stands 46%; under `CSCCC1NC2(CCN(C(=O)c3cccnc3Oc3ccccc3)CC2)N(Cc2ccccc2)C1=O` (stereo not shown) [Example 171, 1-Benzyl-3-(2-methylsulfanylethyl)-8-(2-phenoxypyridin-3-carbonyl)-1,4,8-triazaspiro[4,5]decan-2-one], 62%.
For `Cc1nc(C(F)(F)F)ccc1C(=O)N1CCC2(CC1)NC(C(C)C)C(=O)N2Cc1ccccc1` (stereo not shown) [Example 178, 1-Benzyl-3-isopropyl-8-(2-methyl-6-trifluoromethylpyridin-3-carbonyl)-1,4,8-triazaspiro[4,5]decan-2-one], the inhibition at 1 µM came out at 49%.
The same measure, in the same setting: the same measure for `C#CCN1C(=O)C(Cc2ccccc2)NC12CCN(C(=O)c1ccco1)CC2` (stereo not shown) [Example 186, 3-Benzyl-8-(furan-2-carbonyl)-1-prop-2-ynyl-1,4,8-triazaspiro[4,5]decan-2-one]: 32%; for `CSCCC1NC2(CCN(C(=O)c3cccc4ccccc34)CC2)N(C)C1=O` (stereo not shown) [Example 187, 1-Methyl-3-(2-methylsulfanylethyl)-8-(naphthalin-1-carbonyl)-1,4,8-triazaspiro[4,5]decan-2-one]: 47%; for `CCCCN1C(=O)C(Cc2ccccc2)NC12CCN(C(=O)COC)CC2` (stereo not shown) [Example 190, 3-Benzyl-1-butyl-8-(2-methoxyacetyl)-1,4,8-triazaspiro[4,5]decan-2-one]: 43%.
In the case of `CN1C(=O)C(Cc2ccccc2)NC12CCN(C(=O)c1ccc(C(F)(F)F)c(F)c1)CC2` (stereo not shown) [Example 191, 3-Benzyl-8-(3-fluoro-4-trifluoromethylbenzoyl)-1-methyl-1,4,8-triazaspiro[4,5]decan-2-one], the inhibition at 1 µM is 30%.
On the same count and under the same terms, under `CC(C)C1NC2(CCN(C(=O)c3cccc(SC(F)F)c3)CC2)N(Cc2ccccc2)C1=O` (stereo not shown) [Example 192, 1-Benzyl-8-(3-difluoromethylsulfanylbenzoyl)-3-isopropyl-1,4,8-triazaspiro[4,5]decan-2-one] stands 53%.
Same read-out and setting: under `COC(=O)c1ccc(CN2C(=O)C(C(C)C)NC23CCN(C(=O)c2cccnc2SC)CC3)cc1` (stereo not shown) [Example 194, Methyl 4-[3-isopropyl-8-(2-methylsulfanylpyridin-3-carbonyl)-2-oxo-1,4,8-triazaspiro[4,5]dec-1-ylmethyl]benzoate] stands 32%; under `CCCCN1C(=O)C(Cc2ccccc2)NC12CCN(C(=O)c1ccccn1)CC2` (stereo not shown) [Example 202, 3-Benzyl-1-butyl-8-(pyridin-2-carbonyl)-1,4,8-triazaspiro[4,5]decan-2-one], 56%.
The same measure, in the same setting: the same measure for `CCCCN1C(=O)C(CCSC)NC12CCN(C(=O)C1CCCCC1)CC2` (stereo not shown) [Example 206, 1-Butyl-8-cyclohexanecarbonyl-3-(2-methylsulfanylethyl)-1,4,8-triazaspiro[4,5]decan-2-one]: 55%; for `Cc1nnsc1C(=O)N1CCC2(CC1)NC(C(C)C)C(=O)N2Cc1ccccc1` (stereo not shown) [Example 216, 1-Benzyl-3-isopropyl-8-(4-methyl[1,2,3]thiadiazole-5-carbonyl)-1,4,8-triazaspiro[4,5]decan-2-one]: 55%; for `CCCCN1C(=O)C(CCSC)NC12CCN(C(=O)c1cc(C)oc1C)CC2` (stereo not shown) [Example 219, 1-Butyl-8-(2,5-dimethylfuran-3-carbonyl)-3-(2-methylsulfanylethyl)-1,4,8-triazaspiro[4,5]decan-2-one]: 30%.
On to `C#CCN1C(=O)C(CCSC)NC12CCN(C(=O)CCCOc1ccccc1)CC2` (stereo not shown) [Example 222, 3-(2-Methylsulfanylethyl)-8-(4-phenoxybutyryl)-1-prop-2-ynyl-1,4,8-triazaspiro[4,5]decan-2-one], for which the inhibition at 1 µM is 60%.
Still for that read-out and setting: under `Cc1ccc(Cl)c(C(=O)N2CCC3(CC2)NC(Cc2ccccc2)C(=O)N3C)c1F` (stereo not shown) [Example 224, 3-Benzyl-8-(6-chloro-2-fluoro-3-methylbenzoyl)-1-methyl-1,4,8-triazaspiro[4,5]decan-2-one] stands 30%.
Still for that read-out and setting: under `CC(C)C1NC2(CCN(C(=O)c3ccco3)CC2)N(Cc2ccccc2)C1=O` (stereo not shown) [Example 228, 1-Benzyl-8-(furan-2-carbonyl)-3-isopropyl-1,4,8-triazaspiro[4,5]decan-2-one] stands 32%.
